Results on one molecule are retold here after article PMC9954146, “Anti-Leukaemic Activity of Rilpivirine Is Mediated by Aurora A Kinase Inhibition” (Cancers, 2023).

For orientation: GI50 means the concentration giving 50% growth inhibition. A low value points to more potent growth inhibition.

A value given as a limit tells only on which side of the number the result lay.

In series [1] the test system is U-937 cells. The series is described as follows: Resazurin cell viability assay. The format is cell-based. Conditions: Homo sapiens. The procedure:
(§1) Cell viability was determined by a resazurin-based assay as described previously. Briefly, 5 × 10^3 cells/well were seeded into 96-well plates (Corning Inc., Corning, NY, USA) in 180 µL of RPMI 1640 medium and incubated overnight at 37 °C with 5% CO2. Next day, cells were treated with rilpivirine after serially diluted (1:2 dilution for final concentrations ranging from 0.625 µM to 40 µM) or DMSO (0.1%) for specified time periods (24, 48, or 72 h). At the end of the treatment period, 20 µL of resazurin (0.1 mg/mL in PBS) was added per well and incubated for further 4 h. Fluorescence intensities were recorded at 570 nm (excitation)/585 nm (emission) using an EnVision® multilabel plate reader (PerkinElmer, MA, USA). Drug concentrations required for cell viability reduction by 50% (GI50) compared with untreated (DMSO vehicle-treated only) control were determined by a non-linear regression model using GraphPad Prism software version 7.02 (La Jolla, CA, USA).

Series [2] has as its system NB4 cells. Nature of the series: Resazurin cell viability assay. The format is cell-based. As to conditions: Homo sapiens. The method, then:
as §1
(In general: The colour change of resazurin is a common sign of viable cells or microbes.)

Series [3] relates to CK1(y). The series is described as follows: Kinase panel. It is filed as biochemical, yeast. Conditions: 1 μM. The procedure:
Kinome-wide selectivity of rilpivirine was measured using the kinase screening and profiling service of Eurofins Scientific (Le bois l’Evêque 86600. Celle-Lévescault, France) and Ki values were determined using radioisotope-based assays by Reaction Biology Corporation (Malvern, PA, USA). The experimental details of Eurofin Scientific and Reaction Biology services for relevant assays are available at https://www.eurofinsdiscoveryservices.com/services/in-Vitro-assays/kinases/kinase-profiler (accessed on 7 July 2021) and https://www.reactionbiology.com (accessed on 7 July 2021), respectively. Ki values were estimated from the corresponding IC50 values using the Cheng–Prusoff equation [21] and the Km (ATP) of individual kinase was used for IC50 determination.

The test system of series [4] is caspase 3/7 in HL-60, NB4, K-562, and U-937 cells. The series is described as follows: Caspase-3/7 activity assay. The format is cell-based, human. As to conditions: 10 µM, 48 h, all cell lines. The method, then:
Caspase-3/7 activity was measured after incubation of the cells with the test compounds for a specified time point using an Apo-ONE homogeneous caspase-3/7 kit (Promega, Madison, WI, USA) according to the manufacturer’s instructions. The signal was recorded by the EnVision multi-label plate reader (PerkinElmer, Beaconsfield, UK).

In series [5] the test system is Aurora A kinase signalling pathway proteins in HL-60 and NB4 cells. The series is described as follows: Western blotting, concentration series. The format is cell-based, human. Conditions: 24 h. The method, then:
Western blotting was performed following a method described previously. Briefly, 8 × 10^5 to 1 × 10^6 cells were seeded in petri dishes with 8 to 10 mL of culture medium and incubated overnight at 37 °C, 5% CO2. Then, the cells were treated with the test compounds and further incubated for the specified time point. Cells were then lysed using a lysis buffer containing protease inhibitors, and proteins were extracted by centrifugation. Protein concentrations were determined by using a Bio-Rad DC^TM protein assay kit (Bio-Rad Laboratories, Hercules, CA, USA). A total of 20–30 μg of proteins was loaded onto each well of 4–20% polyacrylamide gels for electrophoresis. Once electrophoresis was completed, gels were placed on pre-soaked polyvinylidene difluoride membranes and blocked with 10% skimmed milk in 1 × Tris-buffered saline and Tween (TBST). Then, the blots were incubated with primary antibodies, followed by washing with TBST for 4 × 20 min. After this, the blots were incubated with the appropriate horseradish peroxidase (HRP)-conjugated secondary antibody, followed by washing again with TBST for 4 × 20 min. The protein bands were then detected with either ECL prime (Amersham^TM ECL^TM prime Western blotting detection reagent) or ECL select (Amersham^TM ECL^TM select Western blotting detection reagent) depending on the abundance of the protein of interest. The blots were imaged using the Bio-Rad ChemiDoc^TM MP imaging system (Bio-Rad Laboratories, Hercules, CA, USA). All the primary and secondary antibodies used in this study were purchased from Cell Signaling Technology (Danvers, MA, USA).
Background: A western blot detects proteins with antibodies after separation by electrophoresis.

Series [6] can be described thus: Tolerated dose in non-tumour-bearing mice. It is filed as in vivo. As to conditions: up to an oral dose of 300 mg/kg, once daily for seven days; non-tumour-bearing female BALB/c nude mice. The procedure:
Animal experiments were performed as reported previously. All animal experiments were conducted following the institutional ethical principles of animal care and approved by the University of South Australia Animal Ethics Committee.

The nature of series [7]: In vivo safety profile in HL-60 engrafted mice. Details: species or system mouse. Conditions: 200 mg/kg orally, once daily for 14 days. The procedure:
Female 6–7-week-old BALB/c nude mice with tumour volumes of 100–200 mm^3 were allocated to two groups (n = 3 per group) and treated with vehicle (0.5% HPMC in water) or rilpivirine (200 mg/kg) daily for 14 days. Upon 24 h post the final dose, mice were humanely killed, and blood, bone marrow, heart, kidney, intestine, liver, and stomach were collected for histopathological analysis. Blood was collected in citrate-treated tubes and a complete blood count was performed by Gribbles Veterinary Pathology (South Australia, Australia). Organs were collected in 10% neutral buffered formalin and stained with hematoxylin and eosin externally by the Hanson Histology Services (South Australia, Australia), while histopathologic analysis was performed by a board-certified pathologist.

For series [8], the system named is HL-60 xenograft. The series is described as follows: In vivo anti-cancer efficacy, HL-60 xenograft. Conditions: 200 mg/kg oral gavage once daily for 15 days. The procedure: An in vivo anti-cancer efficacy study was performed as reported previously. Briefly, female nude BALB/c mice (6–8 weeks of age) were engrafted with HL-60 human leukaemic cells subcutaneously into the rear flanks. Before inoculation, HL-60 (5 × 10^6) cells were cultured, harvested, and re-suspended in a 1:1 mixture of serum-free media and Matrigel (BD Biosciences, NSW, Australia). Mice with 100–200 mm^3 tumour size were allocated randomly into the control or treatment group. Rilpivirine and vehicle (0.5% HPMC) were administered by oral gavage daily. Mice were checked daily for any clinical signs of toxicity, including weight loss. Tumour volume was measured every other day and was calculated as length × width × height. At the end of the study period, or if clinical endpoints were reached as determined by a clinical record sheet score of 4, body condition score of 1, weight loss of ≥15%, or tumour growth of ≥2000 mm^3, the mouse was euthanised. Data analysis was performed using GraphPad Prism software version 7.02 (La Jolla, CA, USA).

`Cc1cc(/C=C/C#N)cc(C)c1Nc1ccnc(Nc2ccc(C#N)cc2)n1` [rilpivirine, (E)-4-((4-((4-(2-cyanoethenyl)-2,6-dimethylphenyl)amino)pyrimidin-2-yl)amino)benzonitrile] yielded a GI50 in series [1] (U-937, 24 h) of 12.1 ± 2.97 µM. In series [1] (U-937, 48 h), this molecule had a GI50 of 5.77 ± 1 µM. Also, growth in series [1] (U-937, 72 h) was halved (GI50) at 4.79 ± 0.17 µM. The GI50 in series [2] (NB-4, 24 h) turned out to be 8.94 ± 1.02 µM. The same molecule had a GI50 in series [2] (NB-4, 48 h) of 6.54 ± 0.83 µM. In series [2] (NB-4, 72 h), this molecule registered a GI50 of 4.6 ± 0.35 µM. Also, the “% Residual Activity” value in series [3] is on record as 92%. The “caspase 3/7 activation vs untreated control” value in series [4] is listed as “significantly increased”. Moreover, in series [5], the CDK1 level entry is “reduced”; the “Cdc25C (Ser198) phosphorylation” value was “inhibited”; the “PARP and caspase 3 cleavage” value is listed as “increased”; the “Plk1 (Thr210) phosphorylation” value was “inhibited”. In series [5], the “anti-apoptotic protein Mcl-1” value is “down-regulation”, the “cyclin B1 level” value was “reduced”, the “phospho-Histone H3 (Ser10)” value is on record as “induced” and the “phosphorylation of CENP (Ser7)” value is reported as “inhibited”. Moreover, the “total Aurora A” value in series [5] is listed as “without affecting”. In addition, in series [5] (concentration-dependent), the “auto-phosphorylation of Aurora A at Thr288” value is “suppressed”. In addition, in series [6], the “body weight and clinical signs of toxicity” value is “did not cause any significant changes in body weight (i.e., >15%) or show overt clinical signs of toxicity”. In series [7], the “complete blood count (red blood cells, neutrophils, lymphocytes, platelets)” value was “did not show any noticeable effects” and the “histopathology of major organs” value is “did not cause any tissue damage in major organs”. In addition, in series [8], the “day from which reduction in tumour growth was statistically significant (p < 0.001)” value was at least 11 days, the “signs of toxicity or weight loss during treatment” value is given as “did not cause any apparent signs of toxicity or weight loss” and the “tumour growth compared with vehicle-treated group” value is “noticeable delay in tumour growth”.
